In US20240293318A1, “CLEAVABLE LINKER-CONTAINING IONIZABLE LIPIDS AND LIPID CARRIERS FOR THERAPEUTIC COMPOSITIONS” (Flagship Pioneering Innovations VII, LLC, priority 2023, published 2024):

Tests used:
[1] = LNP size and polydispersity index by dynamic light scattering (DLS); format: physicochemical; conditions: hEPO mRNA, Lipid:Cholesterol:DSPC:PEG-2k 50:38.5:10:1.5, N:P 6
Excerpt: (§1) Various lipid nanoparticle compositions comprising a nucleic acid payload are characterized by a variety of methods. For example, dynamic light scattering (DLS) is used to determine particle sizes (Wyatt Dynapro Platereader 111). In addition, instruments such as the Zetasizer Nano ZS (Malvern Instruments Ltd) are used to measure multiple physical properties of a lipid nanoparticle composition, such as particle size, polydispersity index (PDI), and zeta potential. Fluorescence-based assays are used to determine the efficiencies of nucleic acid encapsulation in the lipid nanoparticles. Fluorescence-based assays are used to determine the “apparent pKa” of the lipid nanoparticles. Both fluorescence assays are evaluated on a Varioskanlux plate reader (ThermoScientific).
After formulation and processing of the lipid nanoparticle compositions, the Z-average size of lipid nanoparticle composition are assayed by dynamic light scattering (DLS) (e.g., using a Wyatt Dynapro Platereader III or Malvern Zetasizer ZS). Briefly, an aliquot of 2 uL of the processed nanoparticle composition mixture (at an RNA concentration of approximately 0.5 mg/mL) is diluted into 50 uL phosphate buffered saline (0.1×PBS) and loaded into a 384 well plate. The sample is then analyzed to determine nanoparticle size.
(§2) LNPs were characterized by dynamic light scattering (DLS) measurement for measuring its hydrodynamic radius and polydispersity index (PDI). Encapsulation efficiency (EE %) and total RNA concentration were quantitated using a fluorescence based Ribogreen assay.

[2] = Zeta potential assay of LNPs; format: physicochemical; conditions: LNP, hEPO mRNA, Lipid:Cholesterol:DSPC:PEG-2k 50:38.5:10:1.5, N:P 6
Excerpt: as §1
A Zetasizer Nano ZS (Malvern Instruments Ltd) is used to determine the zeta potential of the nanoparticle compositions. Briefly, a 5 uL aliquot of an approximately 0.5 mg mRNA/mL sample is diluted into 800 uL 0.1×PBS. This sample is then transferred to a disposable conducting cuvette and the zeta potential is measured.

[3] = Encapsulation efficiency, fluorescence based Ribogreen assay; format: physicochemical; conditions: LNP, hEPO mRNA, Lipid:Cholesterol:DSPC:PEG-2k 50:38.5:10:1.5, N:P 6
Protocol: For lipid nanoparticle formulations containing an RNA, a QUANTIT™ RIBOGREEN® RNA assay (Invitrogen Corporation) is used to evaluate the encapsulation of RNA within the lipid nanoparticle formulation.
The samples are diluted to ˜10 ug/ml in TE buffer. In a 96 well plate, 50 ul of the diluted sample is added to 50 uL TE buffer in duplicates and 20 uL of diluted sample is added to 80 uL Triton X buffer (2% triton in TE buffer) in duplicates. The plate is incubated for 10 minutes at room temperature. Next, RIBOGREEN® is diluted 1:200 in TE BUFFER, and 100 uL is added to each sample well. The fluorescence intensity is measured using a fluorescence plate reader (e.g., Varioskanlux, ThermoScientific) at an excitation wavelength of about 480 nm and an emission wavelength of about 520 nm. The encapsulation efficiency can be determined by using the percentage ratio of non-encapsulated RNA (TE sample) over the total RNA (TX sample), then subtracting from 100 to find the percentage of encapsulated RNA amount.
as §2

[4] = Apparent pKa of LNPs (TNS assay); format: physicochemical; conditions: LNP, hEPO mRNA, Lipid:Cholesterol:DSPC:PEG-2k 50:38.5:10:1.5, N:P 6
Excerpt: as §1
The apparent pKa of lipid nanoparticle composition is measured using a 6-(p-Toluidino)-2-naphthalenesulfonic acid (TNS) assay. Briefly, lipid nanoparticles (10 uL of approximately 0.5 mg mRNA/mL) and TNS probe (40 uL of 1 mM stock) are added to 750 uL of TNS buffer (25 mM citric acid, 20 mM sodium phosphate, 150 mM NaCl, and 20 mM ammonium acetate), at a pH ranging from 2 to 10. 20 uL of each sample are added to 80 uL of buffer at each pH in a 96-well plate. The plate is incubated for 10 minutes, and the fluorescence signal is measured by means of a spectrofluorometer (Varioskanlux, ThermoScientific) with excitation/emission settings of λex=321 nm, and λem=445 nm. The apparent pKa of the nanoparticle composition is determined by deriving the pH at which 50% of the pH 2 fluorescent signal is present. All datapoints are normalized to the fluorescent signal at pH 2.

C57BL/6 female mice = assay: In vivo hEPO expression of hEPO mRNA LNPs, serum ELISA; conditions: LNP 50:38.5:10:1.5, N:P 6, 0.2 mg/kg hEPO mRNA, tail vein injection, blood serum 6 h post-administration
Protocol: In this example, messenger RNA molecules encoding hEPO proteins were formulated in lipid nanoparticles for delivery in vivo. The lipid nanoparticle (LNP) formulations comprised of a lipid composition of ionizable lipid: helper lipid: cholesterol. DMG-PEG2k at 50:10:38.5:1.5 mol %. The lipid mixture in ethanol was mixed with hEPO mRNA in RNA acidifying buffer (10 mM citrate, pH 4) at an ionizable-lipid-nitrogen-to-RNA-phosphate ratio (N:P) of 6 using a microfluidic device (Precision NanoSystems, Inc.) at a combined flow rate of 10 mL/min (7.5 mL/min for aqueous buffer, RNA and 2.5 mL/min for ethanol, lipid mix). The resulting particles were neutralized by buffer exchange into Dulbecco's phosphate buffer solution via PD-10 desalting column. The neutralized particles were concentrated using 100 kDa AMICON® Ultra centrifugal filters and sterile filtered using 0.2 um syringe filters. Samples were then characterized and diluted as needed (3 replicates).
The in vivo studies were performed in C57BL/6 female mice at 6 to 8 weeks weighing in at approximately 20 g. The LNPs formulated with different ionizable lipids at 0.2 mg/kg of hEPO mRNA were administered by tail vein injection and animals were euthanized at 6 h post-administration for blood serum sample collection. The hEPO levels from the samples were analyzed and cross-compared by enzyme-linked immunoassay (ELISA) according to manufacturer's protocol. The hEPO expression levels for each of the LNPs was compared to a control LNP comprising SM102 (DC Chemicals Cat. No. DC52025). (FIG. 1).

| Compound | PDI [1] | Size [1] [nm] | Zeta [2] [mV] | EE [3] [%] | pKa [4] | hEPO (C57BL/6 female mice) [ng/mL] |
| --- | --- | --- | --- | --- | --- | --- |
| CCCCCCCCCCCOC(=O)CCN(CCO)CCCCCCCC(=O)OC(CCCCCCCC)CCCCCCCC [Lipid 4] | 0.103 | 56.2 | −9.3 | 97.5 | 5.1 | 0.00 |
| CCCCCCCCCCCOC(=O)CCCCCN(CCO)CCCCCCCNP(=O)(OCCCCCCCCC)OCCCCCCCCC [Lipid 5] | 0.358 | 87.4 | −1.0 | 95.3 | 6.8 | 114.89 |
| CCCCCCCCCCCOC(=O)CCCCCN(CCO)CCCCCCCOP(=O)(NCCCCCCCCC)OCCCCCCCCC (centres unmarked) [Lipid 7] | 0.296 | 145.3 | −2.0 | 97.2 | 6.9 | 80.47 |
| CCCCCCCCCCCOC(=O)CCCCCN(CCO)CCCCCCCOP(=O)(NCCCCCCCC)OCCCCCCCC (centres unmarked) [Lipid 8] | 0.302 | 134.7 | 0.1 | 94.2 | 7.0 | 93.09 |
| CCCCCCCCCCCOP(=O)(NCCCCCN(CCO)CCCCCCCC(=O)OC(CCCCCCCC)CCCCCCCC)OCC (centres unmarked) [Lipid 9] |  |  |  |  | 7.0 | 184.44 |
| CCCCCCCCCCOP(=O)(NCCCCCN(CCO)CCCCCCCC(=O)OC(CCCCCCCC)CCCCCCCC)OCC (centres unmarked) [Lipid 10] | 0.064 | 85.6 | 0.8 | 99.6 | 7.2 | 90.05 |
| CCCCCCCCCOP(=O)(NCCCCCN(CCO)CCCCCCCC(=O)OC(CCCCCCCC)CCCCCCCC)OCC (centres unmarked) [Lipid 11] | 0.08 | 94.4 | 2.6 | 99.7 | 7.3 | 63.81 |
| CCCCCCCCCCCNP(=O)(OCC)OCCCCCN(CCO)CCCCCCCOP(=O)(NCCCCCCCCC)OCCCCCCCCC (centres unmarked) [Lipid 12] | 0.316 | 87.6 | 3.5 | 99.3 | 8.3 | 0.00 |
| CCCCCCCCCCCNP(=O)(OCC)OCCCCCN(CCO)CCCCCCCC(=O)OC(CCCCCCCC)CCCCCCCC (centres unmarked) [Lipid 14] | 0.248 | 101.5 | 0.9 | 98.3 | 6.9 | 33.98 |
| CCCCCCCCCCNP(=O)(OCC)OCCCCCN(CCO)CCCCCCCC(=O)OC(CCCCCCCC)CCCCCCCC (centres unmarked) [Lipid 15] | 0.165 | 83.1 | 0.2 | 94.8 | 7.0 | 123.69 |
| CCCCCCCCCNP(=O)(OCC)OCCCCCN(CCO)CCCCCCCC(=O)OC(CCCCCCCC)CCCCCCCC (centres unmarked) [Lipid 16] | 0.116 | 91.6 | −0.4 | 88.1 | 7.0 | 79.22 |
| CCCCCCCCC(CC)OC(=O)CCCCCCCN(CCCCCCCC(=O)OC(CCCCCCCC)CCCCCCCC)CCCn1nc(N)cc1N (centres unmarked) [Lipid 18] | 0.079 | 67.2 | −12.8 | 98.9 | 6.5 | 386.98 |

Continued, in another order:

| PDI [1] | Size [1] [nm] | Zeta [2] [mV] | EE [3] [%] | pKa [4] | Compound | hEPO (C57BL/6 female mice) [ng/mL] |
| --- | --- | --- | --- | --- | --- | --- |
| 0.267 | 65.8 | −8.8 | 97.9 | 5.1 | CCCCCCCCCCCCCCOC(=O)CCN(CCO)CCCCCCCC(=O)OC(CCCCCCCC)CCCCCCCC [Lipid 1] | 0.00 |
| 0.399 | 68.8 | 0.1 | 97.9 | 5.1 | CCCCCCCCCCCCCOC(=O)CCN(CCO)CCCCCCCC(=O)OC(CCCCCCCC)CCCCCCCC [Lipid 2] | 0.00 |
| 0.48 | 62.8 | −9.2 | 97.6 | 5.1 | CCCCCCCCCCCCOC(=O)CCN(CCO)CCCCCCCC(=O)OC(CCCCCCCC)CCCCCCCC [Lipid 3] | 0.00 |
| 0.227 | 132.7 | −0.4 | 95.8 | 6.9 | CCCCCCCCCCCOC(=O)CCCCCN(CCO)CCCCCCCNP(=O)(OCCCCCCCC)OCCCCCCCC [Lipid 6] | 304.28 |
| 0.108 | 67.1 | 2.4 | 96.7 | 7.8 | CCCCCCCCCNP(=O)(OCCCCCCCCC)OCCCCCCCN(CCO)CCCCCOP(=O)(NCCCCCCCCC)OCCCCCCCCC (centres unmarked) [Lipid 13] | 49.71 |
| 0.169 | 75.1 | −14.1 | 98.8 | 6.1 | CCCCCCCCC(CC)OC(=O)CCCCCCCN(CCCCCCCC(=O)OC(CCCCCCCC)CCCCCCCC)CCCNc1nnc(N)[nH]1 (centres unmarked) [Lipid 17] | 6.59 |
| 0.183 | 60.9 | −27.6 | 96.9 | 6.3 | CCCCCCCCC(CC)OC(=O)CCCCCCCN(CCCCCCCC(=O)OC(CCCCCCCC)CCCCCCCC)CCCNS(=O)(=O)NC (centres unmarked) [Lipid 19] | 1014.79 |
| 0.162 | 58.6 | −14.5 | 95.2 | 6.6 | CCCCCCCCC(CC)OC(=O)CCCCCCCN(CCCCCCCC(=O)OC(CCCCCCCC)CCCCCCCC)CCCNS(=O)(=O)N(C)C (centres unmarked) [Lipid 20] | 361.46 |
| 0.277 | 83.3 | −12.3 | 96.4 | 6.5 | CCCCCCCCC(CC)OC(=O)CCCCCCCN(CCCCCCCC(=O)OC(CCCCCCCC)CCCCCCCC)CCCn1nc(N)nc1N (centres unmarked) [Lipid 21] | 0.00 |
